In brackets after ≈: the same amount, converted by molar mass. Activity calls are given as the source filed them. The calls are words filed in the database; no cut-off is given here.
What was measured:
Staphylococcus aureus [1] = test: Antimicrobial activity against Staphylococcus aureus ATCC 13709 by agar-dilution streak method; type: functional
[2] = system: Mycolicibacterium smegmatis; test: Antimicrobial activity against Mycobacterium smegmatis ATCC 607 by agar-dilution streak method; type: functional
Escherichia coli [3] = test: Antimicrobial activity against Escherichia coli ATCC 9637 at 100 ug/mL by agar-dilution streak method; type: functional, organism-based
[4] = system: Salmonella enterica subsp. enterica serovar Gallinarum; test: Antimicrobial activity against Salmonella gallinarum ATCC 9184 at 100 ug/mL by agar-dilution streak method; type: functional, organism-based
Klebsiella pneumoniae [5] = test: Antimicrobial activity against Klebsiella pneumoniae ATCC 10031 at 100 ug/mL by agar-dilution streak method; type: functional, organism-based
Candida albicans = test: Antimicrobial activity against Candida albicans ATCC 10231at 100 ug/mL by agar-dilution streak method; type: functional, organism-based
Staphylococcus aureus [6] = test: Antimicrobial activity against Staphylococcus aureus ATCC 13709 at 100 ug/mL by agar-dilution streak method; type: functional, organism-based
Escherichia coli [7] = test: Antimicrobial activity against Escherichia coli ATCC 9637 by agar-dilution streak method; type: functional
[8] = system: Salmonella enterica subsp. enterica serovar Gallinarum; test: Antimicrobial activity against Salmonella gallinarum ATCC 9184 by agar-dilution streak method; type: functional
Klebsiella pneumoniae [9] = test: Antimicrobial activity against Klebsiella pneumoniae ATCC 10031 by agar-dilution streak method; type: functional

MIC (Staphylococcus aureus [1]) | MIC [2] | Structure (SMILES) | Activity (Escherichia coli [3]) | Activity [4] | Activity (Klebsiella pneumoniae [5]) | Activity (Candida albicans) | Activity (Staphylococcus aureus [6]) | MIC (Escherichia coli [7]) | MIC [8] | MIC (Klebsiella pneumoniae [9])
12.5 µg/mL (≈ 41.3 µM) | 6.25 µg/mL (≈ 20.7 µM) | C=C1C[C@@]23CC[C@H]4[C@@](C)(CCC[C@]4(C)C(=O)O)[C@@H]2CCC1C3 | inactive | inactive | inactive | inactive |  |  |  | 
6.25 µg/mL (≈ 20.7 µM) | 6.25 µg/mL (≈ 20.7 µM) | C[C@@]12C[C@@]34CC[C@H]5[C@@](C)(CCC[C@]5(C)C(=O)O)[C@@H]3C[C@H]1[C@H]2C4 | inactive | inactive | inactive | inactive |  |  |  | 
 | 25 µg/mL (≈ 79 µM) | C=C1C[C@@]23CC[C@H]4[C@@](C)(CCC[C@@]4(C)C(=O)OC)[C@@H]2CC[C@@H]1C3 [KAURENOIC ACID METHYL ESTER] | inactive | inactive | inactive | inactive | inactive |  |  | 

Structure (SMILES) | MIC (Staphylococcus aureus [1]) | MIC [2] | Activity (Escherichia coli [3]) | Activity [4] | Activity (Klebsiella pneumoniae [5]) | Activity (Candida albicans) | Activity (Staphylococcus aureus [6]) | MIC (Escherichia coli [7]) | MIC [8] | MIC (Klebsiella pneumoniae [9])
CN[C@@H]1[C@H](O[C@H]2[C@H](O[C@H]3[C@H](O)[C@@H](O)[C@H](N=C(N)N)[C@@H](O)[C@@H]3N=C(N)N)O[C@@H](C)[C@]2(O)C=O)O[C@@H](CO)[C@H](O)[C@H]1O [STREPTOMYCIN] | 3.1 µg/mL (≈ 5.33 µM) | 0.78 µg/mL (≈ 1.34 µM) |  |  |  | inactive |  | 12.5 µg/mL (≈ 21.5 µM) | 25 µg/mL (≈ 43 µM) | 1.56 µg/mL (≈ 2.68 µM)
